According to US8927544B2, “Benzofuran-2-sulfonamides derivatives as chemokine receptor modulators” (Allergan, Inc., priority 2012, dated 2015):
Like-named read-outs stand apart in the source and are kept apart here.

Target: T1, CCR2 (Homo sapiens, UniProt P41597)
T1 construct: expressed in transfected cells
Test: compound-induced calcium activity on the FLIPR Tetra in HEK-Gqi5 cells stably expressing CCR2
Assay type: cell-based
Description: HEK-Gqi5 cells stably expressing CCR2 were cultured in DMEM high glucose, 10% FBS, 1% PSA, 400 μg/ml geneticin and 50 μg/ml hygromycin. Appropriate positive control chemokines (MCP-1, MIP1A or RANTES) was used as the positive control agonist for screening compound-induced calcium activity assayed on the FLIPR^Tetra. The drug plates were prepared in 384-well microplates using the EP3 and the MultiPROBE robotic liquid handling systems. Compounds were synthesized and tested for CCR2 activity.

[1] = HEK-Gqi5 cells stably expressing CCR2, calcium activity, FLIPR Tetra
[2] = HEK-Gqi5 cells stably expressing CCR2, calcium activity, FLIPR Tetra, read-out: CCR2 IC50

T1 sequence (P41597 whole entry, species assumed): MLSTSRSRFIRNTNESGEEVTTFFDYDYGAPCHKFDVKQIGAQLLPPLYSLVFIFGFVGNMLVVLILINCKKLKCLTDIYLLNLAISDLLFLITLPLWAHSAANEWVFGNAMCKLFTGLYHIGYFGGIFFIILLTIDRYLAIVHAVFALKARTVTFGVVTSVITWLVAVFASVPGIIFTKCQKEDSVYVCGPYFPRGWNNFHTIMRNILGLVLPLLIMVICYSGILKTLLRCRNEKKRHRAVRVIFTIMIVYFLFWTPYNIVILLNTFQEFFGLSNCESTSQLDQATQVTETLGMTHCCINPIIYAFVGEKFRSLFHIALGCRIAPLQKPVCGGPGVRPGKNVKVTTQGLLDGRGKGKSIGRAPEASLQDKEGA

SMILES: COc1ccc(Cl)cc1NS(=O)(=O)c1cc2ccccc2o1 [Compound 1, N-(5-Chloro-2-methoxyphenyl)benzofuran-2-sulfonamide]
- CCR2 ANTAGONISM (%) [1]: 97%
- IC50 [2]: 512 nM

SMILES: Cc1ccc(Cl)cc1NS(=O)(=O)c1cc2ccccc2o1 [Compound 2, N-(5-Chloro-2-methylphenyl)-1-benzofuran-2-sulfonamide]
- CCR2 ANTAGONISM (%) [1]: 84%
- IC50 [2]: 359 nM

SMILES: O=S(=O)(Nc1cc(Cl)ccc1OC(F)(F)F)c1cc2ccccc2o1 [Compound 3, N-[5-Chloro-2-(trifluoromethoxy)phenyl]-1-benzofuran-2-sulfonamide]
- CCR2 ANTAGONISM (%) [1]: 95%
- IC50 [2]: 195 nM

SMILES: COC(=O)c1ccc(Cl)cc1NS(=O)(=O)c1cc2ccccc2o1 [Compound 4, Methyl 2-[(1-benzofuran-2-ylsulfonyl)amino]-4-chlorobenzoate]
- CCR2 ANTAGONISM (%) [1]: 95%
- IC50 [2]: 1380 nM

SMILES: CCOc1ccc(Cl)cc1NS(=O)(=O)c1cc2ccccc2o1 [Compound 5, N-(5-Chloro-2-ethoxyphenyl)-1-benzofuran-2-sulfonamide]
- CCR2 ANTAGONISM (%) [1]: 73%
- IC50 [2]: 1660 nM

SMILES: C#Cc1ccc(Cl)cc1NS(=O)(=O)c1cc2ccccc2o1 [Compound 6, N-(5-Chloro-2-ethynylphenyl)-1-benzofuran-2-sulfonamide]
- CCR2 ANTAGONISM (%) [1]: 93%
- IC50 [2]: 117 nM

SMILES: O=C1CCN(C(=O)c2ccc(Cl)cc2NS(=O)(=O)c2cc3ccccc3o2)CC1 [Compound 7, N-{5-Chloro-2-[(4-oxopiperidin-1-yl)carbonyl]phenyl}-1-benzofuran-2-sulfonamide]
- IC50: 110 nM
- CCR2 ANTAGONISM (%) [1]: 93%

SMILES: O=C(c1ccc(Cl)cc1NS(=O)(=O)c1cc2ccccc2o1)N1CCOCC1 [Compound 8, N-[5-Chloro-2-(morpholin-4-ylcarbonyl)phenyl]-1-benzofuran-2-sulfonamide]
- CCR2 ANTAGONISM (%) [1]: 84%
- IC50 [2]: 569 nM

SMILES: Cc1ncccc1Oc1ccc(Cl)cc1NS(=O)(=O)c1cc2ccccc2o1 [Compound 9, N-{5-Chloro-2-[(2-methylpyridin-3-yl)oxy]phenyl}-1-benzofuran-2-sulfonamide]
- CCR2 ANTAGONISM (%) [1]: 96%
- IC50 [2]: 365 nM

SMILES: COC(=O)c1ccccc1Oc1ccc(Cl)cc1NS(=O)(=O)c1cc2ccccc2o1 [Compound 10, Methyl 2-{2-[(1-benzofuran-2-ylsulfonyl)amino]-4-chlorophenoxy}benzoate]
- CCR2 ANTAGONISM (%) [1]: 98%
- IC50 [2]: 1020 nM

SMILES: O=C(O)c1ccccc1Oc1ccc(Cl)cc1NS(=O)(=O)c1cc2ccccc2o1 [Compound 11, 2-{2-[(1-Benzofuran-2-ylsulfonyl)amino]-4-chlorophenoxy}benzoic acid]
- CCR2 ANTAGONISM (%) [1]: 97%
- IC50 [2]: 60 nM

SMILES: O=S(=O)(Nc1cc(Cl)ccc1Sc1ccccc1)c1cc2ccccc2o1 [Compound 12, N-[5-Chloro-2-(phenylsulfanyl)phenyl]-1-benzofuran-2-sulfonamide]
- CCR2 ANTAGONISM (%) [1]: 90%
- IC50 [2]: 124 nM

SMILES: O=S(=O)(Nc1cc(Cl)ccc1S(=O)(=O)c1ccccc1)c1cc2ccccc2o1 [Compound 13, N-[5-Chloro-2-(phenylsulfonyl)phenyl]-1-benzofuran-2-sulfonamide]
- CCR2 ANTAGONISM (%) [1]: 78%
- IC50 [2]: 1970 nM

SMILES: O=S(=O)(Nc1cc(Cl)ccc1[S+]([O-])c1ccccc1)c1cc2ccccc2o1 (stereo not drawn) [Compound 14, N-[5-Chloro-2-(phenylsulfinyl)phenyl]-1-benzofuran-2-sulfonamide]
- CCR2 ANTAGONISM (%) [1]: 105%
- IC50 [2]: 6 nM

SMILES: O=C(Nc1ccccc1)c1ccc(Cl)cc1NS(=O)(=O)c1cc2ccccc2o1 [Compound 15, 2-[(1-Benzofuran-2-ylsulfonyl)amino]-4-chloro-N-phenylbenzamide]
- CCR2 ANTAGONISM (%) [1]: 95%
- IC50 [2]: 328 nM

SMILES: N#Cc1ccc(Cl)cc1NS(=O)(=O)c1cc2ccccc2o1 [Compound 16, N-(5-Chloro-2-cyanophenyl)-1-benzofuran-2-sulfonamide]
- CCR2 ANTAGONISM (%) [1]: 102%
- IC50 [2]: 409 nM

SMILES: O=C(Cc1ccccc1)c1ccc(Cl)cc1NS(=O)(=O)c1cc2ccccc2o1 [Compound 17, N-[5-Chloro-2-(phenylacetyl)phenyl]-1-benzofuran-2-sulfonamide]
- CCR2 ANTAGONISM (%) [1]: 79%
- IC50 [2]: 183 nM

SMILES: CO/N=C(/Cc1ccccc1)c1ccc(Cl)cc1NS(=O)(=O)c1cc2ccccc2o1 [Compound 18, N-{5-Chloro-2-[(1Z)—N-methoxy-2-phenylethanimidoyl]phenyl}-1-benzofuran-2-sulfonamide]
- CCR2 ANTAGONISM (%) [1]: 76%

SMILES: O=S(=O)(Nc1cc(Cl)ccc1/C(Cc1ccccc1)=N\O)c1cc2ccccc2o1 [Compound 19, N-{5-Chloro-2-[(1Z)—N-hydroxy-2-phenylethanimidoyl]phenyl}-1-benzofuran-2-sulfonamide]
- CCR2 ANTAGONISM (%) [1]: 72%

SMILES: O=S(=O)(Nc1cc(Cl)ccc1OCc1ccccc1)c1cc2ccccc2o1 [Compound 20, N-[2-(Benzyloxy)-5-chlorophenyl]-1-benzofuran-2-sulfonamide]
- CCR2 ANTAGONISM (%) [1]: 87%
- IC50 [2]: 1630 nM

SMILES: O=S(=O)(Nc1cc(Cl)ccc1C#Cc1ccccc1)c1cc2ccccc2o1 [Compound 21, N-[5-Chloro-2-(phenylethynyl)phenyl]-1-benzofuran-2-sulfonamide]
- CCR2 ANTAGONISM (%) [1]: 30%

SMILES: O=S(=O)(Nc1cc(Cl)ccc1CCc1ccccc1)c1cc2ccccc2o1 [Compound 22, N-[5-Chloro-2-(2-phenylethyl)phenyl]-1-benzofuran-2-sulfonamide]
- CCR2 ANTAGONISM (%) [1]: 84%

SMILES: Cc1ccc(Sc2ccccc2)c(NS(=O)(=O)c2cc3ccccc3o2)c1 [Compound 24, N-[5-Methyl-2-(phenylsulfanyl)phenyl]-1-benzofuran-2-sulfonamide]
- CCR2 ANTAGONISM (%) [1]: 41%

SMILES: Cc1ccc([S+]([O-])c2ccccc2)c(NS(=O)(=O)c2cc3ccccc3o2)c1 (stereo not drawn) [Compound 25, N-[5-Methyl-2-(phenylsulfinyl)phenyl]-1-benzofuran-2-sulfonamide]
- CCR2 ANTAGONISM (%) [1]: 92%
- IC50 [2]: 2880 nM

SMILES: Cc1ccc(S(=O)(=O)c2ccccc2)c(NS(=O)(=O)c2cc3ccccc3o2)c1 [Compound 26, N-[5-Methyl-2-(phenylsulfonyl)phenyl]-1-benzofuran-2-sulfonamide]
- CCR2 ANTAGONISM (%) [1]: 38%

SMILES: O=S(=O)(Nc1cc(F)ccc1Sc1ccccc1)c1cc2ccccc2o1 [Compound 27, N-[5-Fluoro-2-(phenylsulfanyl)phenyl]-1-benzofuran-2-sulfonamide]
- CCR2 ANTAGONISM (%) [1]: 74%

SMILES: O=S(=O)(Nc1cc(F)ccc1[S+]([O-])c1ccccc1)c1cc2ccccc2o1 (stereo not drawn) [Compound 28, N-[5-Fluoro-2-(phenylsulfinyl)phenyl]-1-benzofuran-2-sulfonamide]
- CCR2 ANTAGONISM (%) [1]: 91%
- IC50 [2]: 317 nM

SMILES: O=S(=O)(Nc1cc(F)ccc1S(=O)(=O)c1ccccc1)c1cc2ccccc2o1 [Compound 29, N-[5-Fluoro-2-(phenylsulfonyl)phenyl]-1-benzofuran-2-sulfonamide]
- CCR2 ANTAGONISM (%) [1]: 82%
- IC50 [2]: 2620 nM

SMILES: O=C(O)c1ccccc1COc1ccc(Cl)cc1NS(=O)(=O)c1cc2ccccc2o1 [Compound 31, 2-({2-[(1-Benzofuran-2-ylsulfonyl)amino]-4-chlorophenoxy}methyl)benzoic Acid]
- CCR2 ANTAGONISM (%) [1]: 99%
- IC50 [2]: 27 nM
